We go through 19 molecules from patent US11964973B2 (priority 2019, dated 2024).

Assay [1] addresses human DGKζ (Homo sapiens (Human), UniProt Q13574). Kind of assay: biochemical. Type of assay: biochemical. The settings on record: liposome (LIPGLO) assay.
The target of assay [2] is DGKα (Homo sapiens (Human), UniProt P23743). In words: biochemical. In kind it is biochemical. The settings on record: liposome (LIPGLO) assay.
Assay [3] deals with human venous whole blood, CD8 positive population (pERK). Kind of assay: DGK human whole blood pERK assay. Type of assay: cell-based. The settings on record: read-out: DGK HWB pERK IC50. In a few lines:
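Heparinized whole blood from healthy donors preincubated with compound 1 hour at 37° C. Stimulation used anti-CD3 at 1 μg/mL final plus cross-linking goat anti-mouse IgG for 15 minutes. Flow cytometry scored percentage pERK-positive cells among CD8-positive cells.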

The subject of assay [4] is Human venous whole blood (IFN-γ). Kind of assay: Human whole blood IFN-γ assay. Type of assay: cell-based. How it is done:
Assay 10: Human Whole Blood IFN-γ Assay
Human venous whole blood (22.5 μL per well), obtained from healthy donors, was pre-treated with compounds for one hour at 37° C. in a humidified 95% air/5% CO2 incubator. The blood was stimulated with 2.5 μL anti-human CD3 and anti-CD28 mAb at a final concentration of 1 μg/mL each for 24 hours at 37° C. IFN-γ in the supernatants was measured using AlphLISA kit (Cat #AL217).

The mark [5] stands for this setting: human whole blood, CD8 positive population.
Setting [6] is: Homo sapiens, 24 h, human whole blood, anti-CD3 plus anti-CD28, 24 hours, read-out: INFg Whole Blood Normalized Agonist EC50.
The mark [7] stands for this setting: human whole blood, anti-CD3 plus anti-CD28, 24 hours, read-out: INFg Whole Blood Normalized Agonist EC50.
[8] abbreviates: read-out: INFg Whole Blood Normalized Agonist EC50, human whole blood, anti-CD3 plus anti-CD28, 24 hours.

pEC50, pIC50: −log10 of the molar value. Like-named read-outs stand apart in the source and are kept apart here.

Sequence of human DGKζ (Q13574 whole entry, looked up): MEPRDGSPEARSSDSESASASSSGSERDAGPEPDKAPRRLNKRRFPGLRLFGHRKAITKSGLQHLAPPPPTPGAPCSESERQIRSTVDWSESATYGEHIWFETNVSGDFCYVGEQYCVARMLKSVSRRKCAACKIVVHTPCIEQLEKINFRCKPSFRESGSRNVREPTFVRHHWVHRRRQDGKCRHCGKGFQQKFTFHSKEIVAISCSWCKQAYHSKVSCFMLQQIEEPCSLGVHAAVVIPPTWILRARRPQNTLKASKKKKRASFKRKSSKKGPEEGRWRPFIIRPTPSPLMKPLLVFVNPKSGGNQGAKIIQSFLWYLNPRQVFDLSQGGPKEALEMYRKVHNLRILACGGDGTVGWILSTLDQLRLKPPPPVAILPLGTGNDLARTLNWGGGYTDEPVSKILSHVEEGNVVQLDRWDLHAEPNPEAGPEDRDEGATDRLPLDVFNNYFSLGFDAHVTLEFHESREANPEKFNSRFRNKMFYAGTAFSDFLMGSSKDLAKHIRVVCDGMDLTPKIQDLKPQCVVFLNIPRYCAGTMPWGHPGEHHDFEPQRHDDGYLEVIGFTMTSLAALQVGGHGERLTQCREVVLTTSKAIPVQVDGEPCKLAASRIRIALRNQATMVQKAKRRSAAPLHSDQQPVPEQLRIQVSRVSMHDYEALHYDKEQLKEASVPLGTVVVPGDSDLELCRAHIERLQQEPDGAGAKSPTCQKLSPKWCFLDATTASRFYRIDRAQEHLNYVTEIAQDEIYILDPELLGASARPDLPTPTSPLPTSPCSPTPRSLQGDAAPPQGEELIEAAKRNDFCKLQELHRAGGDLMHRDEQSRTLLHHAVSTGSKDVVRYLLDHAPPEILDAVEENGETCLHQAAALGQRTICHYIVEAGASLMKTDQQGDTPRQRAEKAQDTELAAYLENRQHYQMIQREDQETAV
Sequence of DGKα (P23743 whole entry, looked up): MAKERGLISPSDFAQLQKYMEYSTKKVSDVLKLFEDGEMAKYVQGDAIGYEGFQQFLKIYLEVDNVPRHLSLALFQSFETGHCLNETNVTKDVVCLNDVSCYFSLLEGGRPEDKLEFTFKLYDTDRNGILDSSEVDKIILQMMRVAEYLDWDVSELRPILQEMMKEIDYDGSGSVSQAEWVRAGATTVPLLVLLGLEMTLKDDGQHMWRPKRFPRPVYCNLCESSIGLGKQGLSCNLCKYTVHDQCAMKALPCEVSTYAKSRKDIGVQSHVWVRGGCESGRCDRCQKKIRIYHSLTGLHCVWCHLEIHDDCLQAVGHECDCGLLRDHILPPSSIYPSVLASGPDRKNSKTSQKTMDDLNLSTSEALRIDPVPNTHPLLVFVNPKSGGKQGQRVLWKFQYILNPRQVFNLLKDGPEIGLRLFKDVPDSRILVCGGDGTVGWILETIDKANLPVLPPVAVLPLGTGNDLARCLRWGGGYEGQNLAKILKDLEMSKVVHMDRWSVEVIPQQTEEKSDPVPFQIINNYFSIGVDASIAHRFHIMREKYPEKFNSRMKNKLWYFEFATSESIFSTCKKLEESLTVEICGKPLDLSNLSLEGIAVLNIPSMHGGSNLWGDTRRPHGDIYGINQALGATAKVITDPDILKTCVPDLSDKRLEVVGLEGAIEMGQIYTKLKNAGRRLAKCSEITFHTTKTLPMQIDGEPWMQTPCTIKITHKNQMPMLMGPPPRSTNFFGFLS

On to `Cc1nccc(OC2CCN(c3cc(=O)n(C)c4ccc(C#N)nc34)CC2)n1` [Example 72, 5-methyl-8-(4-((2-methylpyrimidin-4-yl)oxy)piperidin-1-yl)-6-oxo-5,6-dihydro-1,5-naphthyridine-2-carbonitrile], for which the pIC50 was 4.41 in assay [1] (read-out: DGKζ LIPGLO IC50), 5.38 in assay [2] (read-out: DGKα LIPGLO IC50) and 4.70 in assay [3] (setting [5]). Besides, the pEC50 in assay [4] (setting [6]) is 4.70.
For `CC[C@@H]1CN(c2cc(=O)n(C)c3ccc(C#N)nc23)CC[C@@H]1Oc1cccc(C(F)(F)F)c1` [Example 168], the figures for the pIC50 in assay [1] (read-out: DGKζ LIPGLO IC50), in assay [2] (read-out: DGKα LIPGLO IC50) and in assay [3] (setting [5]) were 6.05, 6.00 and 5.43, respectively. Also, the pEC50 in assay [4] (setting [7]) is 5.80.
For the molecule `Cn1c(=O)cc(N2CCC(Oc3ccnc(C(F)(F)F)n3)CC2)c2nc(C#N)ccc21` [Example 76, 5-methyl-6-oxo-8-(4-((2-(trifluoromethyl)pyrimidin-4-yl)oxy)piperidin-1-yl)-5,6-dihydro-1,5-naphthyridine-2-carbonitrile], the pIC50 in assay [1] (read-out: DGKζ LIPGLO IC50) is 4.47; in assay [2] (read-out: DGKα LIPGLO IC50), 4.96; in assay [3] (setting [5]), 4.70. The pEC50 in assay [4] (setting [6]) was 4.70.
In the case of `CC(C)Oc1ccc(OC2CCN(c3cc(=O)n(C)c4ccc(C#N)nc34)CC2)nc1` [Example 66, 8-(4-((5-isopropoxypyridin-2-yl)oxy)piperidin-1-yl)-5-methyl-6-oxo-5,6-dihydro-1,5-naphthyridine-2-carbonitrile], the pIC50 in assay [1] (read-out: DGKζ LIPGLO IC50) is 5.40; in assay [2] (read-out: DGKα LIPGLO IC50) it was 5.92; in assay [3] (setting [5]), 5.57. The pEC50 in assay [4] (setting [6]) was 6.09.
With `CCC(C)(C)c1ccc(O[C@H]2CCN(c3cc(=O)n(C)c4ccc(C#N)nc34)C[C@H]2C)cc1` (single isomer, unassigned) [Example 170], the pIC50 was 5.96 in assay [1] (read-out: DGKζ LIPGLO IC50), 6.43 in assay [2] (read-out: DGKα LIPGLO IC50) and 6.27 in assay [3] (setting [5]). The pEC50 in assay [4] (setting [7]) was 6.07.
The corresponding values for `CC(C)c1ccc(O[C@H]2CCN(c3cc(=O)n(C)c4ccc(C#N)nc34)C[C@H]2C)cc1` (single isomer, unassigned) [Example 178] are 6.28, 7.21, 5.64 and 5.34.
As for `CC[C@@H]1CN(c2cc(=O)n(C)c3ccc(C#N)nc23)CC[C@H]1Oc1cccc(C(C)(C)C)c1` (single isomer, unassigned) [Example 198], the pIC50 in assay [1] (Table A, read-out: DGKζ) was 5.89; in assay [2] (Table A, read-out: DGKα), 6.80. The pEC50 in assay [4] (read-out: INFg Whole Blood, human whole blood IFN-γ) was 5.51.
As for `Cc1cc(OC2CCN(c3cc(=O)n(C)c4ccc(C#N)nc34)CC2)nc(C(C)C)n1` [Example 78, 8-(4-((2-isopropyl-6-methylpyrimidin-4-yl)oxy)piperidin-1-yl)-5-methyl-6-oxo-5,6-dihydro-1,5-naphthyridine-2-carbonitrile], the results for the pIC50 in assay [1] (read-out: DGKζ LIPGLO IC50), in assay [2] (read-out: DGKα LIPGLO IC50) and in assay [3] (setting [5]) were 4.80, 6.09 and 4.70, respectively.
For `Cn1c(=O)cc(N2CCC(Oc3ccc(Cl)cn3)CC2)c2nc(C#N)ccc21` [Example 67, 8-(4-((5-chloropyridin-2-yl)oxy)piperidin-1-yl)-5-methyl-6-oxo-5,6-dihydro-1,5-naphthyridine-2-carbonitrile], the pIC50 was 5.15 in assay [1] (read-out: DGKζ LIPGLO IC50) and 5.80 in assay [2] (read-out: DGKα LIPGLO IC50). In addition, the pEC50 in assay [4] (setting [6]) was 5.57.
The corresponding values for `Cn1c(=O)cc(N2CCC(Oc3ccc4c(c3)CCCC4)CC2)c2nc(C#N)ccc21` [Example 61, 5-methyl-6-oxo-8-(4-((5,6,7,8-tetrahydronaphthalen-2-yl)oxy)piperidin-1-yl)-5,6-dihydro-1,5-naphthyridine-2-carbonitrile] are 5.33, 6.14 and 5.07.
In the case of `CC[C@@H]1CN(c2cc(=O)n(C)c3ccc(C#N)nc23)CC[C@H]1Oc1cccc(C(C)C)c1` (single isomer, unassigned) [Example 139], the pIC50 in assay [1] (read-out: DGKζ LIPGLO IC50) was 5.77; in assay [2] (read-out: DGKα LIPGLO IC50), 7.00; in assay [3] (Homo sapiens, CD8 positive), 5.28. Besides, the pEC50 in assay [4] (setting [8]) was 5.82.
In the case of `Cn1c(=O)cc(N2CCC(Oc3nncc4ccccc34)CC2)c2nc(C#N)ccc21` [Example 75, 5-methyl-6-oxo-8-(4-(phthalazin-1-yloxy)piperidin-1-yl)-5,6-dihydro-1,5-naphthyridine-2-carbonitrile], the pIC50 was 4.74 in assay [1] (read-out: DGKζ LIPGLO IC50) and 4.57 in assay [2] (read-out: DGKα LIPGLO IC50). Besides, the pEC50 in assay [4] (setting [6]) was 4.70.
`CC[C@@H]1CN(c2cc(=O)n(C)c3ccc(C#N)nc23)CC[C@H]1Oc1ccc(OC(C)(C)C)cc1` (single isomer, unassigned) [Example 160]: the pIC50 is 5.48 in assay [1] (read-out: DGKζ LIPGLO IC50) and 5.77 in assay [2] (read-out: DGKα LIPGLO IC50). The pEC50 in assay [4] (setting [7]) is 5.35.
In the case of `Cc1ccc(O[C@@H]2CCN(c3cc(=O)n(C)c4ccc(C#N)nc34)C[C@H]2C)cc1` [Example 119, 5-methyl-8-((3R,4R)-3-methyl-4-(p-tolyloxy)piperidin-1-yl)-6-oxo-5,6-dihydro-1,5-naphthyridine-2-carbonitrile], the figures for the pIC50 in assay [1] (read-out: DGKζ LIPGLO IC50) and in assay [2] (read-out: DGKα LIPGLO IC50) were 4.70 and 6.62, respectively. Besides, the pEC50 in assay [4] (setting [6]) was 5.18.
As to `CCCc1ccc(OC2CCN(c3cc(=O)n(C)c4ccc(C#N)nc34)CC2)cc1` [Example 57, 5-methyl-6-oxo-8-(4-(4-propylphenoxy)piperidin-1-yl)-5,6-dihydro-1,5-naphthyridine-2-carbonitrile], the pIC50 in assay [1] (read-out: DGKζ LIPGLO IC50) was 5.21; in assay [2] (read-out: DGKα LIPGLO IC50) it was 6.14. Further, in assay [4] (setting [6]), the pEC50 is 5.37.
The corresponding values for `C[C@@H]1CN(c2cc(=O)n(C)c3ccc(C#N)nc23)CC[C@@H]1Oc1cccc(C2CC2)c1` [Example 179, 8-((3R,4S)-4-(3-cyclopropylphenoxy)-3-methylpiperidin-1-yl)-5-methyl-6-oxo-5,6-dihydro-1,5-naphthyridine-2-carbonitrile] are 5.92, 7.16 and 5.62.
As for `CC[C@@H]1CN(c2cc(=O)n(C)c3ccc(C#N)nc23)CC[C@@H]1Oc1cccc(C(C)(C)C)c1` [Example 167, 8-((3R,4S)-4-(3-(tert-butyl)phenoxy)-3-ethylpiperidin-1-yl)-5-methyl-6-oxo-5,6-dihydro-1,5-naphthyridine-2-carbonitrile], the pIC50 in assay [1] (read-out: DGKζ LIPGLO IC50) is 6.00; in assay [2] (read-out: DGKα LIPGLO IC50), 6.92; in assay [3] (Homo sapiens, CD8 positive), 5.70. In addition, the pEC50 in assay [4] (setting [8]) is 5.80.
For `CC[C@@H]1CN(c2cc(=O)n(C)c3ccc(C#N)nc23)CC[C@@H]1Oc1cccc(C(C)(C)C)c1` [Example 166, 8-((3R,4S)-4-(3-(tert-butyl)phenoxy)-3-ethylpiperidin-1-yl)-5-methyl-6-oxo-5,6-dihydro-1,5-naphthyridine-2-carbonitrile], the pIC50 was 5.80 in assay [1] (read-out: DGKζ LIPGLO IC50) and 7.34 in assay [2] (read-out: DGKα LIPGLO IC50). Moreover, in assay [4] (setting [8]), the pEC50 is 6.10.
`CC(C)c1ccc(O[C@@H]2CCN(c3cc(=O)n(C)c4ccc(C#N)nc34)C[C@H]2C)cc1` [Example 94, 8-((3R,4R)-4-(4-isopropylphenoxy)-3-methylpiperidin-1-yl)-5-methyl-6-oxo-5,6-dihydro-1,5-naphthyridine-2-carbonitrile]: the pIC50 was 5.21 in assay [1] (read-out: DGKζ LIPGLO IC50), 7.10 in assay [2] (read-out: DGKα LIPGLO IC50) and 5.41 in assay [3] (setting [5]). Besides, in assay [4] (setting [6]), the pEC50 is 5.96.
